Test results published in article PMC5870190, “A three-in-one-bullet for oesophageal cancer: replication fork collapse, spindle attachment failure and enhanced radiosensitivity generated by a ruthenium(II) metallo-intercalator” (Chemical Science, 2017).

Assays:
[1] = system: OE21 cells; experiment: Micronuclei formation, OE21; format: cell-based, human; conditions: 20 μM Ru1, 24 h incubation
Description: (§1) propidium iodide (PI) is standard to quantify DNA content using flow cytometry, bleed-through of the MLCT emission of […]
(§2) To remove these artefacts, a higher concentration of Ru1 (100 µM, 10 mins) was additionally applied post-incubation and fixation to treated and control samples, acting as a substitute DNA dye instead of PI. After staining, cells were centrifuged (1000 rpm, 5 mins) and re-suspended in PBS.
(§3) Samples were analysed using a Biosciences LSRII Flow Cytometer using the FL2 channel to collect (recognisable) cell-cycle […]
(§4) profiles. […] A minimum of
(§5) 10,000 cells were counted for each sample and data were processed using FloJo software.
(§6) Microscopy and immunofluorescence. […]
(§7) emission was collected from 500-530 nm to prevent spectral overlap with Ru1 emission. γH2AX foci were counted using […]
(§8) The absorbance at 540 nm was quantified by plate reader (reference wavelength 650 nm). The metabolic activity of the cell population was determined as a percentage of a negative (solvent) control. […]
(§9) Cell cultures were treated as stated, media containing detached/dead cells were removed and retained, and adherent collected by Trypsin and centrifugation. […] Trypan Blue negative and Trypan Blue positive cells were counted by haemocytometer. A minimum of 200 cells were counted for each sample. […]

[2] = system: OE33 cells; experiment: Micronuclei formation, OE33; format: cell-based, human; conditions: OE33, 45 μM Ru1, 24 h incubation
Description: as §1, §2, §3, §4, §5, §6, §7, §8, §9

[Ru(phen)2(tpphz)]^2+ [Ru1]
Cells with micronuclei, Percentage ([1]; OE21 (n=1)): 17.8% | Cells with micronuclei, Percentage ([1]; OE21 (n=2)): 15.0% | Cells with micronuclei, Percentage [2]: 3.4%
